Structures can show the parent of a compound that is named as a salt. Where two headings read alike, the source gives them in different places.
Test system: Acinetobacter baumannii ATCC 17978
Assay: Antimicrobial susceptibility testing: 90% growth inhibitory concentration (IC90) determination
Assay type: cell-based
Conditions: 90% growth inhibitory concentration, Acinetobacter baumannii ATCC17978, Iso-Sensitest broth, OD 600 nm over 16h, read-out: ATCC17978 IC90
How it was run: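 Growth of the Acinetobacter baumannii strain was followed by optical density at 600 nm every 20 minutes for 16h at 35±2° C. Inoculum was ~5×10^(5) CFU/ml in Iso-Sensitest medium, with twofold compound dilutions (e.g. 50 to 0.097 μM final). The 90% inhibitory concentration was derived in log-phase growth.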

[1] = Acinetobacter baumannii, ATCC17978, 16 h

Row | IC90 [1] | SMILES | IC90
1 | 0.55 µM | COc1ccc(-c2cnc3c(Nc4ccc(C(=N)NCC(N)=O)c(C)c4)nccn23)cc1 [Example 17] | 
2 | 0.24 µM | COc1ccc(-c2cnc3c(Nc4ccc(C(=O)N(C)C)c(C)c4)nccn23)cc1 [Example 13, 4-((3-(4-methoxyphenyl)imidazo [1,2-a]pyrazin-8-yl)amino)-N,N,2-trimethylbenzamide] | 
3 | 0.12 µM | COc1ccc(-c2cnc3c(Nc4ccc(C(=O)NCCCN5CCNCC5)c(C)c4)nccn23)c(F)c1F [Example 67, 4-((3-(2,3-difluoro-4-methoxyphenyl)imidazo [1,2-a]pyrazin-8-yl)amino)-2-methyl-N-(3-(piperazin-1-yl)propyl)benzamide] | 
4 | 0.1 µM | COc1ccc(-c2cnc3c(Nc4ccc(C(=O)N[C@H](C)CN)c(Cl)c4)nccn23)c(F)c1F [Example 504, #N!-[(2#R!)-1-aminopropan-2-yl]-2-chloro-4-[[3-(2,3-difluoro-4-methoxyphenyl)imidazo[1,2-a]pyrazin-8-yl]amino]benzamide;dihydro-chloride] | 
5 | 0.73 µM | COc1ccc(-c2cnc3c(Nc4ccc(C(=O)N(C)C)cc4)nccn23)cc1Cl [Example 180, 4-[[3-(3-chloro-4-methoxyphenyl)imidazo[1,2-a]pyrazin-8-yl]amino]-N,N-dimethylbenzamide;2,2,2-trifluoroacetic acid] | 
6 | 0.44 µM | Cc1cc(Nc2nccn3c(-c4ccc(Cl)c(F)c4F)cnc23)ccc1C(=O)NCCC1CCN(C)CC1 [Example 244, 4-[[3-(4-chloro-2,3-difluorophenyl)imidazo[1,2-a]pyrazin-8-yl]amino]-2-methyl-N-[2-(1-methylpiperidin-4-yl)ethyl]benzamide] | 
7 | 0.61 µM | C=Cc1cc(Nc2nccn3c(-c4ccc(OC(F)F)cc4)cnc23)ccc1C(=O)NC [Example 92, 4-((3-(4-(difluoromethoxy)phenyl)imidazo[1,2-a]pyrazin-8-yl)amino)-N-methyl-2-vinylbenzamide] | 
8 | 1.7 µM | COc1ccc(-c2cnc3c(Nc4ccc5c(c4)CCNC5=O)nccn23)c(Cl)c1 [Example 179, 6-[[3-(2-chloro-4-methoxyphenyl)imidazo[1,2-a]pyrazin-8-yl]amino]-3,4-dihydro-2H-isoquinolin-1-one] | 
9 | 3.3 µM | Cc1cc(Nc2nccn3c(-c4ccc(OC(F)F)cc4)cnc23)ccc1C(=O)NC[C@H](C)N [Example 254, N-[(2S)-2-aminopropyl]-4-[[3-[4-(difluoromethoxy)phenyl]im-dazo[1,2-a]pyrazin-8-yl]amino]-2-methylbenzamide; hydrochlo-ride] | 
10 | 0.96 µM | COc1ccc(-c2cnc3c(Nc4ccc(C(=O)N(C)CCc5ncc[nH]5)c(C)c4)nccn23)cc1F [Example 112, 4-[[3-(3-fluoro-4-methoxy-phenyl)imidazo[1,2-a]pyrazin-8-yl]amino]-N-[2-(1H-imidazol-2-yl)ethyl]-N,2-dimethyl-benzamide] | 
11 | 0.09 µM | N#CCOc1ccc(-c2cnc3c(Nc4ccc(C(=O)NCCc5ccncc5)c(Cl)c4)nccn23)c(F)c1F [Example 75, 2-chloro-4-((3-(4-(cyanomethoxy)-2,3-difluorophenyl)imidazo [1,2-a]pyrazin-8-yl)amino)-N-(2-(pyridin-4-yl)ethyl)benzamide] | 
12 | 0.047 µM | N#CCOc1ccc(-c2cnc3c(Nc4ccc(C(=O)NCCCCN)c(Cl)c4)nccn23)c(F)c1F [Example 519, N-(4-aminobutyl)-2-chloro-4-((3-(4-(cyanomethoxy)-2,3-difluorophenyl)imidazo[1,2-a]pyrazin-8-yl)amino)benzamide] | 
13 | 0.26 µM | CNC(=O)c1ccc(Nc2nccn3c(-c4ccc(OC(F)F)cc4)cnc23)cc1I [Example 91, 4-((3-(4-(difluoromethoxy)phenyl)imidazo[1,2-a]pyrazin-8-yl)amino)-2-iodo-N-methylbenzamide] | 
14 | 2.4 µM | COc1ccc(-c2cnc3c(Nc4ccc(C(=O)NCCN5CCNCC5=O)c(C)c4)nccn23)cc1F [Example 248, 4-[[3-(3-fluoro-4-methoxyphenyl)imidazo[1,2-a]pyrazin-8-yl]amino]-2-methyl-N-[2-(2-oxopiperazin-1-yl)ethyl]benzamide;hydrochlo-ride] | 

The remaining lines, values behind:

Row | SMILES | IC90 [1] | IC90
15 | COc1ccc(-c2cnc3c(Nc4ccc(C(=O)NCCC5CCN(C)CC5)c(C)c4)nccn23)cc1 [Example 195, 4-[[3-(4-methoxyphenyl)imidazo[1,2-a]pyrazin-8-yl]amino]-2-methyl-N-[2-(1-methylpiperidin-4-yl)ethyl]benzamide;hydrochlo-ride] |  | 0.36 µM
16 | Cc1cc(Nc2nccn3c(-c4ccc(OCC#N)c(F)c4F)cnc23)ccc1C(=O)NCCCNC(=O)[C@@H]1C[C@@H](O)CN1 [Example 357, (2S,4R)-N-[3-[[4-[[3-[4-(cyanomethoxy)-2,3-difluorophenyl]imidazo[1,2-a]pyrazin-8-yl]amino]-2-methylbenzoyl]amino]propyl]-4-hydroxypyrrolidine-2-carboxamide] | 0.05 µM | 
17 | COc1ccc(-c2cnc3c(Nc4ccc(C(=O)NC[C@@H](N)CNC(=O)[C@@H]5C[C@@H](O)CN5)c(C)c4)nccn23)c(F)c1F [Example 468, (2S,4R)-N-[(2R)-2-amino-3-[[4-[[3-(2,3-difluoro-4-methoxy-phenyl)imidazo[1,2-a]pyrazin-8-yl]amino]-2-methyl-benzoyl]amino]propyl]-4-hydroxy-pyrrolidine-2-carboxamide; formic acid] | 0.48 µM | 
18 | CCc1cc(Nc2nccn3c(-c4ccc(OC(F)F)c(F)c4F)cnc23)ccc1C(=O)NCCCO[C@H]1O[C@H](CO)[C@@H](O)[C@H](O)[C@H]1O [Example 328, 4-[[3-[4-(difluoromethoxy)-2,3-difluorophenyl]imidazo[1,2-a]pyrazin-8-yl]amino]-2-ethyl-N-[3-[(2S,3R,4S,5S,6R)-3,4,5-trihydroxy-6-(hydroxymethyl)oxan-2-yl]oxypropyl]benzamide] | 0.3 µM | 
19 | CCc1cc(Nc2nccn3c(-c4ccc(Oc5ccc(F)cn5)c(F)c4F)cnc23)ccc1C(=O)NCCNC(=O)CCN [Example 425, N-[2-(3-aminopropanoylamino)ethyl]-4-[[3-[2,3-difluoro-4-[(5-fluoro-2-pyridyl)oxy]phenyl]imidazo [1,2-a]pyrazin-8-yl]amino]-2-ethyl-benzamide; formic acid] | 0.6 µM | 
20 | CCc1cc(Nc2nccn3c(-c4ccc(Oc5cnn[nH]5)c(F)c4F)cnc23)ccc1C(=O)NCC1CCN(CC2CCNC2)CC1 (centres unmarked) [Example 557, 4-[[3-[2,3-difluoro-4-(1#H!- triazol-5-yloxy)phenyl]imidazo[1,2-a]pyrazin-8-yl]amino]-2-ethyl-#N!-[[1-(pyrrolidin-3-ylmethyl)piperidin-4-yl]methyl]benzamide;formic acid] | 0.48 µM | 
21 | CCc1cc(Nc2nccn3c(-c4ccc(OC)c(F)c4F)cnc23)ccc1C(=O)NCC1CCN(C(=O)C2CCNCC2)CC1 [Example 546, 4-((3-(2,3-difluoro-4-methoxyphenyl)imidazo[1,2-a]pyrazin-8-yl)amino)-2-ethyl-N-((1-(piperidine-4-carbonyl)piperidin-4-yl)methyl)benzamide 2,2,2-trifluoroacetate] | 0.07 µM | 
22 | Cc1cc(Nc2nccn3c(-c4ccc(OC(F)F)cc4)cnc23)ccc1C(=O)N(C)CCN(C)C [Example 50, 4-((3-(4-(difluoromethoxy)phenyl)imidazo[1,2-a]pyrazin-8-yl)amino)-N-(2-(dimethylamino)ethyl)-N,2-dimethylbenzamide] | 4.3 µM | 
23 | CCc1cc(Nc2nccn3c(-c4ccc(OC)c(F)c4F)cnc23)ccc1C(=O)NCCCN [Example 118, N-(3-aminopropyl)-4-((3-(2,3-difluoro-4-methoxyphenyl)imidazo[1,2-a]pyrazin-8-yl)amino)-2-ethylbenzamide dihydrochloride] |  | 0.45 µM
24 | CCc1cc(Nc2nccn3c(-c4ccc(OC)c(F)c4F)cnc23)ccc1C(=O)NCCNC(=O)CCN [Example 364, N-[2-(3-aminopropanoylamino)ethyl]-4-[[3-(2,3-difluoro-4-methoxyphenyl)imidazo[1,2-a]pyrazin-8-yl]amino]-2-ethylbenzamide] | 0.09 µM | 
25 | CCc1cc(Nc2nccn3c(-c4ccc(Oc5ccc(C(=O)NCCCN)cn5)c(F)c4F)cnc23)ccc1C(=O)NC [Example 507, N-(3-aminopropyl)-6-[4-[8-[3-ethyl-4-(methylcarbamoyl)anilino]imidazo[1,2-a]pyrazin-3-yl]-2,3-difluoro-phenoxy]pyridine-3-carboxamide; formic acid] |  | 0.5 µM
26 | Cc1cc(Nc2nccn3c(-c4ccc(OCC#N)c(F)c4F)cnc23)ccc1C(=O)NC[C@H](N)CNC(=O)[C@@H]1C[C@@H](O)CN1 [Example 470, (2S,4R)-N-[(2S)-2-amino-3-[[4-[[3-[4-(cyanomethoxy)-2,3-difluoro-phenyl]imidazo[1,2-a]pyrazin-8-yl]amino]-2-methyl-benzoyl]amino]propyl]-4-hydroxy-pyrrolidine-2-carboxamide; formic acid] | 0.6 µM | 
27 | COc1ccc(-c2cnc3c(Nc4ccc(C(=O)N(C)CC5CCOCC5)c(Cl)c4)nccn23)c(F)c1F [Example 41, 2-chloro-4-[[3-(2,3-difluoro-4-methoxy-phenyl)imidazo[1,2-a]pyrazin-8-yl]amino]-N-methyl-N-(tetrahydropyran-4-ylmethyl)benzamide; 2,2,2-trifluoroacetic acid] |  | 0.62 µM
28 | COc1ccc(-c2cnc3c(Nc4ccc(C(=O)NCCCCN5CCOCC5)c(C)c4)nccn23)cc1F [Example 187, 4-[[3-(3-fluoro-4-methoxyphenyl)imidazo[1,2-a]pyrazin-8-yl]amino]-2-methyl-N-(4-morpholin-4-ylbutyl)benzamide] | 0.27 µM | 
29 | CCc1cc(Nc2nccn3c(-c4ccc(OC)c(F)c4F)cnc23)ccc1C(=O)NCCNC(=O)NCCCN [Example 335, N-[2-(3-aminopropylcarbamoylamino)ethyl]-4-[[3-(2,3-difluoro-4-methoxyphenyl)imidazo[1,2-a]pyrazin-8-yl]amino]-2-ethylbenzamide] | 0.43 µM | 

Reference: patent US20230012368A1 (Hoffmann-La Roche Inc., priority 2018, published 2023)
